Source: patent US10131652B2, “Pyrimidinyloxy benzene derivatives as herbicides” (E. I. DU PONT DE NEMOURS AND COMPANY, priority 2014, dated 2018)
Like-named read-outs stand apart in the source and are kept apart here.

What was measured:
Assay type in all cases: in vivo
[1] = system: blackgrass (Alopecurus myosuroides); assay: Test B postemergence plant response
Method in brief: (§1)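 Seedlings in a loam soil and sand mix received a postemergence application of the formulated chemicals at the one- to two-leaf stage (2–10 cm tall). They were kept in a greenhouse for roughly 10 days, then scored for injury relative to untreated plants, 0 meaning no effect and 100 complete control.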

[2] = system: galium (catchweed bedstraw, Galium aparine); assay: Test B postemergence plant response
Method in brief: as §1

[3] = system: waterhemp_RES1 (ALS & Triazine resistant common waterhemp, Amaranthus rudis); assay: Test F postemergence plant response; settings: scale 0 to 100
Description: (§2) At the same time, plants from these crop and weed species and also waterhemp_RES1, (ALS & Triazine resistant common waterhemp, Amaranthus rudis), and waterhemp_RES2, (ALS & HPPD resistant common waterhemp, Amaranthus rudis) were treated with postemergence applications of test chemicals formulated in the same manner. Plants ranged in height from 2 to 18 cm for postemergence treatments (1- to 4-leaf stage).
(§3) Treated plants and controls were maintained in a greenhouse for 14 to 21 days, after which time all species were compared to controls and visually evaluated. Plant response ratings, summarized in Table F, are based on a scale of 0 to 100 where 0 is no effect and 100 is complete control. A dash (-) response means no test result.

[4] = system: waterhemp_RES2 (ALS & HPPD resistant common waterhemp, Amaranthus rudis); assay: Test F postemergence plant response; settings: scale 0 to 100
Description: as §2, §3

[5] = system: chickweed (common chickweed, Stellaria media); assay: Test D postemergence plant response; settings: for pest or weed control at 16 g/ha / pest or weed control at 31 g/ha / pest or weed control at 62 g/ha / pest or weed control at 125 g/ha: Stellaria media, post-emergence; for pest or weed control at 16 g/ha / pest or weed control at 31 g/ha / Chickweed plant response rating: scale 0 to 100 (0 no effect, 100 complete control); for pest or weed control at 16 g/ha / pest or weed control at 31 g/ha: read-out: Chickweed plant response rating; for pest or weed control at 62 g/ha / pest or weed control at 125 g/ha / Plant response rating, Chickweed: scale 0 to 100, 0 no effect, 100 complete control; for pest or weed control at 62 g/ha / pest or weed control at 125 g/ha: read-out: Plant response rating, Chickweed
Method in brief: (§4)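 Plants grown in pots of peat moss–vermiculite medium with wetting agent and starter nutrients received postemergence applications of the formulated test chemicals at 2 to 18 cm height (1- to 4-leaf stage). After 13 to 15 days in a greenhouse, injury was scored visually against untreated controls, 0 (no effect) to 100 (complete control).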

kochia (Kochia scoparia) = assay: Test D postemergence plant response; settings: for pest or weed control at 16 g/ha / pest or weed control at 31 g/ha / pest or weed control at 62 g/ha / pest or weed control at 125 g/ha: Bassia scoparia, post-emergence; for pest or weed control at 16 g/ha / pest or weed control at 31 g/ha / Kochia plant response rating: scale 0 to 100 (0 no effect, 100 complete control); for pest or weed control at 16 g/ha / pest or weed control at 31 g/ha: read-out: Kochia plant response rating; for pest or weed control at 62 g/ha / pest or weed control at 125 g/ha / Plant response rating, Kochia: scale 0 to 100, 0 no effect, 100 complete control; for pest or weed control at 62 g/ha / pest or weed control at 125 g/ha: read-out: Plant response rating, Kochia
Method in brief: as §4

wild oat (Avena fatua) = assay: Test D postemergence plant response; settings: for pest or weed control at 16 g/ha / pest or weed control at 31 g/ha / pest or weed control at 62 g/ha / pest or weed control at 125 g/ha: Avena fatua, post-emergence; for pest or weed control at 16 g/ha / pest or weed control at 31 g/ha / Oat, Wild plant response rating: scale 0 to 100 (0 no effect, 100 complete control); for pest or weed control at 16 g/ha / pest or weed control at 31 g/ha: read-out: Oat, Wild plant response rating; for pest or weed control at 62 g/ha / pest or weed control at 125 g/ha / Plant response rating, Oat, Wild: scale 0 to 100, 0 no effect, 100 complete control; for pest or weed control at 62 g/ha / pest or weed control at 125 g/ha: read-out: Plant response rating, Oat, Wild
Method in brief: as §4

[6] = system: morningglory (Ipomoea spp.); assay: Test B pre-/postemergence plant response; settings: Ipomoea, 240 h, read-out: Plant response rating, Morningglory; for pest or weed control at 125 g/ha: 125 g ai/ha; for pest or weed control at 500 g/ha: 500 g ai/ha
Method in brief: (§5)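 Ratings reflect visual injury versus untreated controls, from 0 for no effect to 100 for complete control, assessed roughly 10 days after treatment. Formulation: non-phytotoxic solvent mix with surfactant; pre- and postemergence sprays on plants grown in loam soil and sand.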

[7] = system: large (Lg) crabgrass (Digitaria sanguinalis); assay: Test B pre-/postemergence plant response; settings: Digitaria sanguinalis, 240 h, read-out: Plant response rating, Crabgrass, Large; for pest or weed control at 125 g/ha: 125 g ai/ha; for pest or weed control at 500 g/ha: 500 g ai/ha
Method in brief: as §5

[8] = system: velvetleaf (Abutilon theophrasti); assay: Test B pre-/postemergence plant response; settings: Abutilon theophrasti, 240 h, read-out: Plant response rating, Velvetleaf; for pest or weed control at 125 g/ha: 125 g ai/ha; for pest or weed control at 500 g/ha: 500 g ai/ha
Method in brief: as §5

[9] = 125 g ai/ha, postemergence, 0 to 100 scale, 0 no effect, 100 complete control
[10] = Postemergence, 500 g ai/ha, 0 to 100 scale (0 no effect, 100 complete control)
[11] = Postemergence, 1000 g ai/ha, 0 to 100 scale (0 no effect, 100 complete control)
[12] = post-emergence, postemergence, 0 to 100 scale, 0 no effect, 100 complete control
[13] = post-emergence, Postemergence, 0 to 100 scale (0 no effect, 100 complete control)
[14] = pre-emergence, Preemergence, 0 to 100 scale where 0 is no effect and 100 is complete control

| Structure (SMILES) | Plant response rating, Blackgrass [1, 9] | Plant response rating, Blackgrass [1, 10] | Plant response rating, Galium [2, 9] | Plant response rating, Galium [2, 10] | Plant response rating, Waterhemp_RES1 ([3]; 31 g ai/ha Postemergence) | Plant response rating, Waterhemp_RES1 ([3]; 62 g ai/ha Postemergence) | Plant response rating, Waterhemp_RES2 ([4]; 31 g ai/ha Postemergence) | Plant response rating, Waterhemp_RES2 ([4]; 62 g ai/ha Postemergence) | pest or weed control at 16 g/ha ([5]; 16 g ai/ha) [%] | pest or weed control at 31 g/ha ([5]; 31 g ai/ha) [%] | pest or weed control at 62 g/ha ([5]; 62 g ai/ha) [%] | pest or weed control at 125 g/ha ([5]; 125 g ai/ha) [%] | pest or weed control at 16 g/ha (kochia (Kochia scoparia); 16 g ai/ha) [%] | pest or weed control at 31 g/ha (kochia (Kochia scoparia); 31 g ai/ha) [%] | pest or weed control at 62 g/ha (kochia (Kochia scoparia); 62 g ai/ha) [%] | pest or weed control at 125 g/ha (kochia (Kochia scoparia); 125 g ai/ha) [%] | pest or weed control at 16 g/ha (wild oat (Avena fatua); 16 g ai/ha) [%] | pest or weed control at 31 g/ha (wild oat (Avena fatua); 31 g ai/ha) [%] | pest or weed control at 62 g/ha (wild oat (Avena fatua); 62 g ai/ha) [%] | pest or weed control at 125 g/ha (wild oat (Avena fatua); 125 g ai/ha) [%] | further results |
| --- | --- | --- | --- | --- | --- | --- | --- | --- | --- | --- | --- | --- | --- | --- | --- | --- | --- | --- | --- | --- | --- |
| FC(F)c1cc(-c2ccccc2Oc2ncc(Cl)cn2)on1 [Compound 53, 5-chloro-2-[2-[3-(difluoromethyl)-5-isoxazolyl]phenoxy]pyrimidine] | 100 | 100 | 100 | 100 | 90 | 95 | 90 | 100 | 50 | 80 | 80 | 90 | 90 | 100 | 100 | 100 | 5 | 10 | 30 | 20 | Plant response rating, Waterhemp_RES1 ([3]; 8 g ai/ha Postemergence): 70; Plant response rating, Waterhemp_RES1 ([3]; 16 g ai/ha Postemergence): 85; Plant response rating, Waterhemp_RES1 ([3]; 125 g ai/ha Postemergence): 100; Plant response rating, Waterhemp_RES2 ([4]; 8 g ai/ha Postemergence): 70; Plant response rating, Waterhemp_RES2 ([4]; 16 g ai/ha Postemergence): 80; Plant response rating, Waterhemp_RES2 ([4]; 125 g ai/ha Postemergence): 100 |
| Fc1cccc(Oc2ncc(Cl)cn2)c1-c1cc(C(F)F)on1 [Compound 55, 5-chloro-2-[2-[5-(difluoromethyl)-3-isoxazolyl]-3-fluorophenoxy]pyrimidine] |  |  |  |  | 100 | 100 | 100 | 100 | 70 | 75 | 98 | 100 | 98 | 100 | 100 | 100 | 5 | 15 | 40 | 40 | Plant response rating, Blackgrass [1, 11]: 100; Plant response rating, Galium [2, 11]: 100 |
| Cc1cc(-c2ccccc2Oc2ncc(Cl)cn2)on1 [Compound 58] | 70 | 90 | 100 | 100 | 65 | 70 | 70 | 75 |  |  |  |  |  |  |  |  |  |  |  |  | Plant response rating, Waterhemp_RES1 ([3]; 8 g ai/ha Postemergence): 10; Plant response rating, Waterhemp_RES1 ([3]; 16 g ai/ha Postemergence): 20; Plant response rating, Waterhemp_RES1 ([3]; 125 g ai/ha Postemergence): 75; Plant response rating, Waterhemp_RES2 ([4]; 8 g ai/ha Postemergence): 65; Plant response rating, Waterhemp_RES2 ([4]; 16 g ai/ha Postemergence): 60; Plant response rating, Waterhemp_RES2 ([4]; 125 g ai/ha Postemergence): 80; Chickweed plant response rating ([5]; 16 g ai/ha): 5; Chickweed plant response rating ([5]; 31 g ai/ha): 10; Plant response rating, Chickweed ([5]; 62 g ai/ha): 15; Plant response rating, Chickweed ([5]; 125 g ai/ha): 30; Kochia plant response rating (kochia (Kochia scoparia); 16 g ai/ha): 35; Kochia plant response rating (kochia (Kochia scoparia); 31 g ai/ha): 50; Plant response rating, Kochia (kochia (Kochia scoparia); 62 g ai/ha): 60; Plant response rating, Kochia (kochia (Kochia scoparia); 125 g ai/ha): 80; Oat, Wild plant response rating (wild oat (Avena fatua); 16 g ai/ha): 0; Oat, Wild plant response rating (wild oat (Avena fatua); 31 g ai/ha): 0; Plant response rating, Oat, Wild (wild oat (Avena fatua); 62 g ai/ha): 0; Plant response rating, Oat, Wild (wild oat (Avena fatua); 125 g ai/ha): 0 |
| FC(F)(F)c1cc(-c2ccccc2Oc2ncc(Cl)cn2)on1 [Compound 63, 5-chloro-2-[2-[3-(trifluoromethyl)-5-isoxazolyl]phenoxy]pyrimidine] |  |  |  |  |  |  |  |  | 60 | 65 | 98 | 100 | 90 | 95 | 98 | 100 | 0 | 20 | 25 | 35 | pest or weed control at 125 g/ha [6, 12]: 100%; pest or weed control at 500 g/ha [6, 13]: 100%; pest or weed control at 125 g/ha [6, 14]: 30%; pest or weed control at 500 g/ha [6, 14]: 60%; pest or weed control at 125 g/ha [7, 12]: 80%; pest or weed control at 500 g/ha [7, 13]: 90%; pest or weed control at 125 g/ha [7, 14]: 100%; pest or weed control at 500 g/ha [7, 14]: 100%; pest or weed control at 125 g/ha [8, 12]: 100%; pest or weed control at 500 g/ha [8, 13]: 100%; pest or weed control at 125 g/ha [8, 14]: 70%; pest or weed control at 500 g/ha [8, 14]: 90% |
